Reference: publication PMC5428663, “Identification of small molecule inhibitors of Interleukin-18” (Scientific Reports, 2017)

Key:
[1] = biological target: T1, hIL-18:ectvIL-18BP complex (Homo sapiens, UniProt Q14116); assay: biochemical; format: binding, human; ectromelia virus; details: for IC50: 5% DMSO, read-out: IC50, inhibition of hIL-18:ectvIL-18BP complex formation
T1 construct: Mature human IL-18 was cloned into a modified pET vector containing a C-terminal 6x His tag; 6x His (C); made in house; host or cells: E. coli BL21 gold (DE3) with biotin ligase for hIL-18; E. coli BL21 (DE3) Rosetta-Gami 2 for MBP-ectvIL-18BP
T1 sequence (Q14116 37-193): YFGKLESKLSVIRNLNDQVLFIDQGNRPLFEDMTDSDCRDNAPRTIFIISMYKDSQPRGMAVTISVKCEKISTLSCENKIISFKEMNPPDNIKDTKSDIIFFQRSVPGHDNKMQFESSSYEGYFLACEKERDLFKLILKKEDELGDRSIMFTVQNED

[2] = system: hIL-18 induced IFN-γ production in human KG-1 cells; assay: IFN-γ bioassay (hIL-18 induced IFN-γ production in KG-1 cells); format: cell-based; details: for inhibition of hIL-18 activities (IFN-γ secretion): KG-1 cells, 1 uM inhibitor, increasing hIL-18 (Fig. 4)

Row | Structure (SMILES) | Ki [1] | fold difference of calculated Ki (ELISA) vs predicted Autodock Ki [1] | IC50 [1] | inhibition of hIL-18 activities (IFN-γ secretion) [2] | EC50 ([2]; Homo sapiens, KG-1 cells 1 × 10^6 cells ml^−1, constant hIL-18, 24 hr, read-out: EC50, inhibition of hIL-18 induced IFN-γ production)
1 | CCOC(=O)c1ccc(Nc2sc(C(=O)c3cccc([N+](=O)[O-])c3)c(N)c2C#N)cc1 [NSC201631, ethyl 4-[[4-amino-3-cyano-5-(3-nitrobenzoyl)thiophen-2-yl]amino]benzoate] | 1.6 µM | approximately 2 fold | 44 µM | did not inhibit hIL-18 activities | 
2 | O=C(Nc1cccc(-c2nc3ccccc3[nH]2)c1)c1ccc(C(=O)Nc2cccc(-c3nc4ccccc4[nH]3)c2)cc1 [NSC61610, 1-N,4-N-bis[3-(1H-benzimidazol-2-yl)phenyl]benzene-1,4-dicarboxamide] | 0.2 µM | approximately 2 fold | 6 µM | small inhibitory effect | 
3 | N#Cc1ccc(NC(=O)Nc2ccc(Oc3ccc(NC(=O)Nc4ccc(C#N)cc4)cc3)cc2)cc1 [NSC80734, 1-(4-cyanophenyl)-3-[4-[4-[(4-cyanophenyl)carbamoylamino]phenoxy]phenyl]urea] | 1.8 µM | approximately 4 fold | 52 µM | best inhibition | ~0.25 µM
